This note sets out measurements from patent US20120172451A1, “CLEANING LIQUID” (priority 2010, published 2012).

Each structure is given as a SMILES string.

The data set is described as follows: pH measurement. The class given is physicochemical. From the text: All measurements of pH and temperature mentioned in this specification were taken on a Hanna Instruments Ltd. device, with the model no. HI98127 (a waterproof pH and ° C./° F. probe). The measurements of pH and temperature could be taken on other generally available pH and temperature probes.

`O=C(O)CC(O)(CC(=O)O)C(=O)O` [citric acid] registered a pH (50 g/l at 20° C.) of 1.8. With `O=P(O)(O)O` [phosphoric acid], for the setting “1 mol/L at 20° C.”, the pH entry is recorded as “around 1.08”.
